# Laboratory results from patent US9486405B2, “Methods for the treatment of pediatric otic disorders” (Otonomy, Inc., priority 2013, dated 2016).
# Assays:
# [1] = Middle ear histology, one-month acute ototoxicity study; type: in vivo, guinea pig; conditions: at termination; Composition A 2% and 6% single IT-ANT; drops twice daily for 7 days; gentamicin single IT-ANT
# Protocol: (§1) At termination, functional and anatomic assessments of the middle and inner ear compartments were conducted.
# Histological analysis of middle ear paraffin sections was conducted at termination.
# Middle ear histology—Guinea pigs received vascular perfusion through the heart with an isotonic saline solution followed by fixative containing 4% paraformaldehyde (PFA) in phosphate buffer. Left and right temporal bones were removed and trimmed. Left ear cochleae were designated for inner ear assessment and the right ear cochleae for middle ear histology. Cochleae of the left ear were fixed by intrascalar perfusion of 4% PFA. The temporal bones were then placed in 4% PFA for approximately 1 hour and transferred to a vial containing 0.5% PFA in phosphate buffer. The right temporal bones were trimmed, and then each was placed in a cassette containing 5% EDTA in phosphate buffer. The cassettes were placed into a PELCO 3451 Microwave System, running constantly for 3-5 days. Ears were then dehydrated in EtOH and processed in JB-4 Glycol Methacrylate resin, placed into molds containing the resin and polymerized at ˜4° C. for ˜12 h. Blocks containing temporal bones were trimmed and 5 μm sections were cut with a Leica RM2165 Microtome and stained with Paragon stain. Sections were examined under bright field optics. Middle ear sections were assessed for tissue reaction and inflammatory response. […]
# [2] = test system: inner and outer hair cells; experiment: Inner ear cytocochleogram, one-month acute ototoxicity study; type: in vivo, guinea pig; conditions: at termination; 2% and 6% single IT-ANT; drops twice daily for 7 days; gentamicin single IT-ANT
# Protocol: as §1
# Inner ear cytocochleogram—The left ear cochleae were carefully removed from the temporal bones and then further dissected, first removing the bony otic capsule, followed by removal of lateral wall tissues, including spiral ligament and stria vascularis. The tectorial membrane was then removed and the cochleae placed in a solution of rhodamine labeled phalloidin, diluted 1:100 in phosphate buffered saline (PBS), for 30-120 min, in the dark, followed by two washes in PBS. The cochlear sensory neural epithelium was then dissected away from the modiolus, starting at the apex, to produce surface preparations of the cochlear spiral. Each segment was mapped for location and placed on a slide. A quantitative assessment of presence or absence of hair cells was then carried out, beginning at apex and proceeding to the base, to produce a cytocochleogram, with presence or absence or hair cells mapped by position along the cochlear spiral.
substance,measurement,setting,value
gentamicin,middle ear histology finding,[1],moderate chronic inflammation
same,hair cell loss (cytocochleogram),[2],profound to complete hair cell loss
